≈ marks a conversion by molar mass, not a printed value. Like-named read-outs stand apart in the source and are kept apart here.
Key:
C. difficile strain 4118 [1] = test: Minimum bactericidal concentration (MBC), logarithmic- and stationary-phase cells; type: cell-based, Clostridium difficile
Procedure: The procedure for MBC determination was adapted from that of Alam et al.[44]. Briefly, a single overnight colony of C. difficile strain 4118 (streaked onto blood agar plate) was suspended in BHIS and grown to OD600 ~ 0.4–0.5 (logarithmic phase) or for 24 h (stationary phase). In 96-well microtiter plates, cultures were added to two-fold serial dilutions of test compounds in BHIS and incubated for 20–24 h at 37 °C in an anaerobic chamber. […] MBC measurements were performed in duplicate.

16 C. difficile isolates = test: MIC by broth microdilution, summary over 16 C. difficile isolates; type: cell-based, Clostridium difficile; conditions: for MIC50 / MIC90: Clostridioides difficile; for MIC Range: range over 16 C. difficile isolates
[2] = tested on: C. difficile isolate 20110986 (ribotype 078); test: MIC by broth microdilution; type: cell-based, Clostridium difficile; conditions: Clostridioides difficile
B. subtilis ATCC 6051 = test: MIC by broth microdilution; type: cell-based; conditions: Bacillus subtilis, ATCC6051
C. difficile strain 4118 [3] = test: Time-kill kinetics against stationary-phase cultures; type: cell-based, Clostridium difficile
Procedure: At t = 0, 3, 6 and 24 h, sample aliquots were withdrawn from the treated cultures and bacterial viability was scored by plating serial dilutions on BHIS agar plates. The agar plates were incubated in the anaerobic chamber for 20–24 h at 37 °C. Kinetic experiments were performed at least twice.

[4] = tested on: B. breve Strain EX336960VC19; test: MIC by broth microdilution; type: cell-based; conditions: Bifidobacterium breve
[5] = tested on: B. fragilis Strain CL05T00C42; test: MIC by broth microdilution; type: cell-based; conditions: Bacteroides fragilis
[6] = tested on: B. thetaiotaomicron ATCC 29148; test: microbe, parasite or virus in culture; type: cell-based; conditions: Bacteroides thetaiotaomicron, ATCC29148
[7] = tested on: C. difficile isolate 20100584 (ribotype 014); test: MIC by broth microdilution; type: cell-based, Clostridium difficile; conditions: Clostridioides difficile
S. epidermidis 1457 = test: MIC by broth microdilution; type: cell-based; conditions: Staphylococcus epidermidis
[8] = tested on: C. difficile isolate 20100422 (ribotype 054); test: MIC by broth microdilution; type: cell-based, Clostridium difficile; conditions: Clostridioides difficile
Hemolysis assay = type: cell-based; conditions: sheep, pH 7.4, 32 µg/mL, 1 h, 37 °C, 1% Triton X-100 positive control, triplicate, read-out: Hemolysis (%)
Procedure: Sheep red blood cells (Innovative Research, Novi, MI, USA) were washed three times with PBS pH 7.4. A 3% cell suspension in PBS (100 μL) was added to test compounds in PBS (100 μL, to a final concentration of 32 μg/mL), and then incubated at 37 °C for 1 h. The plate was centrifuged at 500 × g for 10 min, and supernatants (100 μL) were transferred to a clean 96-well plate. Hemolysis was determined by measuring absorbance at 540 nm, with 1% Triton X-100 as the positive control and 0.5% DMSO in PBS as the negative control. Hemolysis assays were performed in triplicate.

[9] = tested on: C. difficile isolate 20110961 (ribotype A12); test: MIC by broth microdilution; type: cell-based, Clostridium difficile; conditions: Clostridioides difficile
[10] = tested on: C. difficile isolate 20110973 (ribotype 106); test: MIC by broth microdilution; type: cell-based, Clostridium difficile; conditions: Clostridioides difficile
[11] = tested on: C. difficile strain 4118 (CD4118, ATCC BAA-1870, ribotype 027); test: MIC by broth microdilution; type: cell-based, Clostridium difficile; conditions: for MIC: Clostridioides difficile
[12] = tested on: C. difficile isolate 20110960 (ribotype 017); test: MIC by broth microdilution; type: cell-based, Clostridium difficile; conditions: Clostridioides difficile
[13] = tested on: C. difficile isolate 20121190 (ribotype 126); test: MIC by broth microdilution; type: cell-based, Clostridium difficile; conditions: Clostridioides difficile
[14] = tested on: C. clostridioforme ATCC 25537; test: MIC by broth microdilution; type: cell-based, Clostridium clostridioforme; conditions: Clostridium, ATCC25537
C. sporogenes ATCC 15579 = test: MIC by broth microdilution; type: cell-based; conditions: Clostridium sporogenes, ATCC15579, BHIS, anaerobic, duplicate
[15] = tested on: C. difficile isolate 20110566 (ribotype 020); test: MIC by broth microdilution; type: cell-based, Clostridium difficile; conditions: Clostridioides difficile
[16] = tested on: C. difficile isolate 20110742 (ribotype 002); test: MIC by broth microdilution; type: cell-based, Clostridium difficile; conditions: Clostridioides difficile
[17] = tested on: L. johnsonii Strain 135-1-CHN; test: MIC by broth microdilution; type: cell-based; conditions: Lactobacillus johnsonii, STRAIN1351CHN
P. aeruginosa PAO1 = test: MIC by broth microdilution; type: cell-based; conditions: Pseudomonas aeruginosa
[18] = tested on: C. difficile isolate 20111163 (ribotype 024); test: MIC by broth microdilution; type: cell-based, Clostridium difficile; conditions: Clostridioides difficile
[19] = tested on: B. longum subsp. longum Strain 44B; test: MIC by broth microdilution; type: cell-based; conditions: Bifidobacterium longum
P. nigrescens ATCC 33563 = test: MIC by broth microdilution; type: cell-based; conditions: Prevotella nigrescens, ATCC33563
[20] = tested on: C. difficile isolate 20120016 (ribotype 019); test: MIC by broth microdilution; type: cell-based, Clostridium difficile; conditions: Clostridioides difficile
[21] = tested on: C. difficile isolate 20121412 (ribotype 047); test: MIC by broth microdilution; type: cell-based, Clostridium difficile; conditions: Clostridioides difficile
[22] = tested on: C. difficile isolate 20110869 (ribotype 001_072); test: MIC by broth microdilution; type: cell-based, Clostridium difficile; conditions: Clostridioides difficile
P. distasonis ATCC 8503 = test: MIC by broth microdilution; type: cell-based; conditions: Parabacteroides distasonis, ATCC8503
[23] = tested on: C. difficile isolate 20110740 (ribotype 018); test: MIC by broth microdilution; type: cell-based, Clostridium difficile; conditions: Clostridioides difficile

Cc1ncc([N+](=O)[O-])n1CCO [Metronidazole, metronidazole]
MBC (C. difficile strain 4118 [1]; Clostridioides difficile, 4118, minimum bactericidal concentration (≥3-log reduction) for logarithmic-phase cells, 20–24 h, n = 2, read-out: MBClog): > 32 µg/mL | MBC (C. difficile strain 4118 [1]; Clostridioides difficile, 4118, minimum bactericidal concentration (≥3-log reduction) for stationary-phase cells, 20–24 h, n = 2, read-out: MBCstat): > 32 µg/mL | log reduction of CD4118 stationary-phase cells (C. difficile strain 4118 [1]; at 32 μg/mL, 20–24 h): < 3 log | MIC50 (16 C. difficile isolates; MIC at which 50% of the 16 isolates are inhibited, n = 2, read-out: MIC50): 0.25 µg/mL (≈ 1.46 µM) | MIC90 (16 C. difficile isolates; MIC at which 90% of the 16 isolates are inhibited, n = 2, read-out: MIC90): 0.25 µg/mL (≈ 1.46 µM) | MIC Range (16 C. difficile isolates; n = 2): 0.13 to 0.25 µg/mL | MIC ([2]; isolate 20110986, ribotype 078, duplicate, read-out: MIC): 0.13 to 0.25 µg/mL (≈ 0.76 to 1.46 µM) | MIC (B. subtilis ATCC 6051; B. subtilis ATCC 6051, CAMHB, aerobic, duplicate, read-out: MIC): > 32 µg/mL | log killing of CD4118 stationary-phase cells (C. difficile strain 4118 [3]; 16× MIC (metronidazole 4 μg/mL, vancomycin 32 μg/mL), up to 24 h): < 3 log | MIC ([4]; B. breve EX336960VC19, LSM broth, anaerobic, duplicate, read-out: MIC): > 32 µg/mL | MIC ([5]; B. fragilis CL05T00C42, supplemented Brucella broth, anaerobic, duplicate, read-out: MIC): 0.5 µg/mL (≈ 2.92 µM) | MIC [6]: 1 µg/mL (≈ 5.84 µM) | MIC ([7]; isolate 20100584, ribotype 014, duplicate, read-out: MIC): 0.25 µg/mL (≈ 1.46 µM) | MIC (S. epidermidis 1457; S. epidermidis 1457, CAMHB, aerobic, duplicate, read-out: MIC): > 32 µg/mL | MIC ([8]; isolate 20100422, ribotype 054, duplicate, read-out: MIC): 0.25 µg/mL (≈ 1.46 µM) | hemolysis at 1 h, 32 µg/mL (Hemolysis assay; sheep red blood cells (3% suspension)): < 1% | MIC ([9]; isolate 20110961, ribotype A12, duplicate, read-out: MIC): 0.25 µg/mL (≈ 1.46 µM) | MIC ([10]; isolate 20110973, ribotype 106, duplicate, read-out: MIC): 0.25 µg/mL (≈ 1.46 µM) | MIC ([11]; ATCCBAA1870, BHIS broth, anaerobic, 20–24 h, n = 2, read-out: MIC C. difficile 4118): 0.25 µg/mL (≈ 1.46 µM) | MIC ([12]; isolate 20110960, ribotype 017, duplicate, read-out: MIC): 0.25 µg/mL (≈ 1.46 µM) | MIC ([13]; isolate 20121190, ribotype 126, duplicate, read-out: MIC): 0.13 µg/mL (≈ 0.76 µM) | MIC ([14]; C. clostridioforme ATCC 25537, BHIS, anaerobic, duplicate, read-out: MIC): 0.06 µg/mL (≈ 0.351 µM) | MIC (C. sporogenes ATCC 15579): 0.25 µg/mL (≈ 1.46 µM) | MIC ([15]; isolate 20110566, ribotype 020, duplicate, read-out: MIC): 0.25 µg/mL (≈ 1.46 µM) | MIC ([16]; isolate 20110742, ribotype 002, duplicate, read-out: MIC): 0.13 µg/mL (≈ 0.76 µM) | MIC ([17]; L. johnsonii 135-1-CHN, CAMHB with 5% laked horse blood, ~48 h, duplicate, read-out: MIC): > 32 µg/mL | MIC (P. aeruginosa PAO1; P. aeruginosa PAO1, CAMHB, aerobic, duplicate, read-out: MIC): > 32 µg/mL | MIC ([18]; isolate 20111163, ribotype 024, duplicate, read-out: MIC): 0.13 µg/mL (≈ 0.76 µM) | MIC ([19]; B. longum subsp. longum 44B, LSM broth, anaerobic, duplicate, read-out: MIC): 4 to 8 µg/mL (≈ 23.4 to 46.7 µM) | MIC (P. nigrescens ATCC 33563; P. nigrescens ATCC 33563, supplemented Brucella broth, anaerobic, duplicate, read-out: MIC): 2 µg/mL (≈ 11.7 µM) | MIC ([20]; isolate 20120016, ribotype 019, duplicate, read-out: MIC): 0.25 µg/mL (≈ 1.46 µM) | MIC ([21]; isolate 20121412, ribotype 047, duplicate, read-out: MIC): 0.25 µg/mL (≈ 1.46 µM) | MIC ([22]; isolate 20110869, ribotype 001_072, duplicate, read-out: MIC): 0.25 µg/mL (≈ 1.46 µM) | MIC (P. distasonis ATCC 8503; P. distasonis ATCC 8503, supplemented Brucella broth, anaerobic, duplicate, read-out: MIC): 2 µg/mL (≈ 11.7 µM) | MIC ([23]; isolate 20110740, ribotype 018, duplicate, read-out: MIC): 0.25 µg/mL (≈ 1.46 µM)

O=C(Nc1ccc(Oc2ccc(Cl)cc2)c(Cl)c1)c1cc(I)cc(I)c1O [Rafoxanide, rafoxanide]
MBC (C. difficile strain 4118 [1]; Clostridioides difficile, 4118, read-out: MBClog): 0.5 µg/mL (≈ 0.799 µM) | MBC (C. difficile strain 4118 [1]; Clostridioides difficile, 4118, read-out: MBCstat): 1 µg/mL (≈ 1.6 µM) | MIC50 (16 C. difficile isolates): 0.06 µg/mL (≈ 0.0958 µM) | MIC90 (16 C. difficile isolates): 0.13 µg/mL (≈ 0.208 µM) | MIC Range (16 C. difficile isolates; n = 2): 0.03 to 0.13 µg/mL | MIC [2]: 0.06 to 0.13 µg/mL (≈ 0.0958 to 0.208 µM) | MIC (B. subtilis ATCC 6051): ≤ 0.03 µg/mL | log decrease in the number of CFUs (C. difficile strain 4118 [3]; 4 × MIC, 24 h, stationary-phase CD4118): 2.7 log | time to eradicate >99.9% of viable cells (C. difficile strain 4118 [3]; 16× MIC (rafoxanide 2 μg/mL, closantel 4 μg/mL, compound 8 1 μg/mL), stationary-phase CD4118): 6 h | MIC [4]: 16 to 32 µg/mL (≈ 25.6 to 51.1 µM) | MIC [5]: 32 µg/mL (≈ 51.1 µM) | MIC [6]: > 32 µg/mL | MIC [7]: 0.06 µg/mL (≈ 0.0958 µM) | MIC (S. epidermidis 1457; 1457): ≤ 0.03 µg/mL | MIC [8]: 0.13 µg/mL (≈ 0.208 µM) | hemolysis at 1 h, 32 µg/mL (Hemolysis assay): < 1% | MIC [9]: 0.06 µg/mL (≈ 0.0958 µM) | MIC [10]: 0.06 µg/mL (≈ 0.0958 µM) | MIC C. difficile 4118 ([11]; BHIS broth, anaerobic, 20–24 h, n = 2): 0.13 µg/mL (≈ 0.208 µM) | MIC ([11]; ATCCBAA1870, read-out: MIC C. difficile 4118): 0.13 µg/mL (≈ 0.208 µM) | MIC [12]: 0.06 µg/mL (≈ 0.0958 µM) | MIC [13]: 0.13 µg/mL (≈ 0.208 µM) | MIC [14]: 1 µg/mL (≈ 1.6 µM) | MIC (C. sporogenes ATCC 15579): 1 µg/mL (≈ 1.6 µM) | MIC [15]: 0.06 µg/mL (≈ 0.0958 µM) | MIC [16]: 0.06 µg/mL (≈ 0.0958 µM) | MIC ([17]; 48 h): 32 µg/mL (≈ 51.1 µM) | MIC (P. aeruginosa PAO1; PAO1): > 32 µg/mL | MIC [18]: 0.06 µg/mL (≈ 0.0958 µM) | MIC [19]: 8 µg/mL (≈ 12.8 µM) | MIC (P. nigrescens ATCC 33563): 8 µg/mL (≈ 12.8 µM) | MIC [20]: 0.13 µg/mL (≈ 0.208 µM) | MIC [21]: 0.03 µg/mL (≈ 0.0479 µM) | MIC [22]: 0.13 µg/mL (≈ 0.208 µM) | MIC (P. distasonis ATCC 8503): 8 µg/mL (≈ 12.8 µM) | MIC [23]: 0.06 µg/mL (≈ 0.0958 µM)
